Measured values taken from patent US7713943B2, “Further use of protein kinase N beta” (Silence Therapeutics Aktiengesellschaft (AG), priority 2002, dated 2010).
“Also recorded” adds a separate entry of the source. Marks after values point to notes of the source that are not given here. One block for each compound: values may come before it.

Columns and labels:
endogenous PKN-beta [1] = assay: Expression of endogenous PKN-beta after LY294002, Western blot, PC-3 cells; format: cell-based, human
Procedure: (§1) PC-3 cells were cultivated as described in example 1 herein. Said PC-3 cells are PTEN −/−. HeLa cells were obtained from the American Type Culture Collection (ATCC) and grown as described in Sternberger et al. (2002). Transfections were carried out in 10-cm plates (at 30% to 50% confluency) using Fugene 6 (Roche, Nutley, N.J.) according to the manufacturer's instructions. Cultivated cells were trypsinated and harvested following stopping the trypsin effect by medium. Both cell types, i.e. PC-3 cells and HeLa cells were treated for the indicated times with 10 μM LY294002 or DMSO, whereby DMSO was used as the solvent for LY294002 and, because of this, as negative control. The resulting extracts were fractionated by SDS-PAGE and subsequently analysed by Western-blotting. The levels of the indicated proteins such as p110, which served as a loading control, endogenous PKN-beta and phosphorylated Akt were detected using the respective antibodies. Phosphorylated Akt (P*-Akt) serves as a control for the efficacy of the LY294002-mediated treatment.

endogenous PKN-beta [2] = assay: Expression of endogenous PKN-beta after LY294002, Western blot, HeLa cells; format: cell-based; conditions: 10 μM LY294002, 48 h
Procedure: as §1

PKNbeta = assay: Kinase activity and phosphorylation of recombinant PKN-beta from LY294002-treated HeLa cells; format: cell-based
Source text: Recombinant wildtype PKN-beta or derivatives of PKN-beta (as described in FIGS. 10-11) were transiently expressed in HeLa cells. Said derivatives were PKN-beta derivative TA and derivative KE as described in example 10 herein. The PKN-beta was modified in each case by a myc-tag as described above which allowed the precipitation of PKN-beta and its derivatives using an anti-Myc antibody.
For the assessment of the activity of PKN-beta an in vitro kinase activity using the immune precipitates was carried out as described above. Half of the precipitates were subjected to the in vitro kinase reaction, the second half was analyzed by Western-blotting using anti-phospho-PRK antibodies. The filter was stripped and reprobed using the anti-PKN-beta antiserum. Phospho-p70 S6 Kinase levels were analyzed from aliquots of cell lysates, that were withdrawn earlier, to confirm the efficacy of the LY294002 treatment even after only 3 h treatment. The anti-phospho p70 antibody was obtained from Cell signaling.

[3] = test system: MPB (myelin basic protein); assay: In vitro kinase activity of protein kinase N beta derivatives, MPB/MBP phosphorylation; format: biochemical; parameters: key to Activity: +: active; −: inactive; !: no “hyper activation” was observed as one might have expected from comparable mutations in other kinases (Morgan and Debond, 1994); conditions: for Activity: MPB substrate, FIG. 9
Procedure: The respective fragments were transiently epressed in HeLa cells. Their relative expression was determined by Western-blot analysis of Hela cell extracts using an anti-PKNbeta antibody.
MPB is myelin basic protein which is a standard in vitro phosphorylation substrate.
As may be taken from FIG. 9A apart from the full-length protein kinase N beta only the kinase domain in its otherwise wildtype form is active in phosphorylating MPB.
The PKNbeta-derived molecules were immune-precipitated from the cell extracts shown in FIG. 10 by using anti-tag antibodies. The immune precipitates were washed as described (Klippel et al., 1996) and divided in two halfs. One half was incubated with 5 μg MBP (UBI) as a phosphorylation substrate, 4 mM MgCl2 and gamma ^32P-ATP in a buffered solution for 10 min at room temperature. In addition, phosphatase inhibitors and inhibitors against unspecifically acting kinases were added as in Klippel et al., 1998. Incorporation of radioactive phosphate was detected by autoradiography after separating the reaction products by 16% SDS-PAGE (FIG. 11B).

GST-GSK3 fusion protein = assay: Non-radioactive in vitro kinase assay, anti-phospho GSK3alpha Western blot; format: biochemical; conditions: immune precipitates, 200 μM rATP, FIG. 11A
Procedure: The second half of the immune precipitates was incubated with 1 μg GST-GSK3 fusion protein (Cell Signaling Technology) as a phosphorylation substrate in the presence of 200 μM rATP. The reaction mixture was subsequently analyzed by 8-16% gradient SDS-PAGE and Western blotting using the anti-phospho GSK3alpha antibody (Cell Signaling Technology) (FIG. 11A).
The specificity of the in vitro phosphorylation reactions was controlled by analyzing kinase defective variants (e.g. containing mutations in the ATP binding site, see above) in parallel to active protein.
In a first step, the suitability of a non-radioactive screening formate was determined, whereby the various protein kinase N beta derivatives as already discussed in connection with example 10, were used for phosphorylating a suitable substrate. Such substrate may, for example, be MBP or a GSK3 peptide which is typically immobilised on a suitable carrier such as agarose- or sepharose beads or on plastic surfaces. In the present case and as depicted in FIG. 11A, the substrate is a GSK3-derived peptide fused to paramyosin. […] The phosphorylated substrate in the present case was detected by anti-phospho GSK3 alpha antibody (mentioned above).

[4] = LY294002 treatment, anti-phospho-PRK antibody
[5] = transient overexpression in HeLa cells

Compound: O=c1cc(N2CCOCC2)oc2c(-c3ccccc3)cccc12 [LY294002, 2-(4-morpholinyl)8-phenylchromone]
endogenous PKNbeta expression (protein level) (endogenous PKN-beta [1]; 10 μM LY294002, 24 h): visible reduction | endogenous PKNbeta expression (protein level) (endogenous PKN-beta [1]; 10 μM LY294002, 48 h): further reduced | endogenous PKNbeta expression (protein level) (endogenous PKN-beta [2]): reduced amounts can be detected | kinase activity of PKNbeta, phosphorylation of MBP (PKNbeta; 3 h of LY294002 treatment): visible | kinase activity of PKNbeta, phosphorylation of MBP (PKNbeta; 24 h of LY294002 treatment): almost completely inhibited | kinase activity of PKNbeta, phosphorylation of MBP (PKNbeta; LY294002 treatment of HeLa cells prior to lysis, FIG. 13): strong inhibition | phosphorylation of PKNbeta at position 718 (PKNbeta; [4]): compromised | phosphorylation status of PKN-beta derivative KE (PKNbeta; [4]): to some extent affected

phosphorylation of MBP, 32P incorporation ([3]; immune precipitates, gamma 32P-ATP, autoradiography, FIG. 11B): show activity | phosphorylating MPB (FIG. 9A) [3, 5]: active | Activity [3, 5]: +*
Compound: Kinase domain comprising amino acids 535-889: protein kinase N beta derivative, kinase domain comprising amino acids 535-889
phosphorylation of GSK3-derived substrate (GST-GSK3 fusion protein): suitable to phosphorylate the substrate; also recorded: show activity

Activity [3, 5]: −*
Compound: TA718: kinase domain derivative, threonine at position 718 changed to alanine

Activity [3, 5]: −*!
Compound: TD718: kinase domain derivative, threonine at position 718 changed to aspartic acid

Activity [3, 5]: −*!
Compound: TE718: kinase domain derivative, threonine at position 718 changed to glutamic acid
